# Results from patent publication US5405852A, “Amide derivatives” (Zeneca Limited, priority 1992, dated 1995).
# Molecular target: T1, human leukocyte elastase (HLE) (Homo sapiens, UniProt P08246)
# T1 sequence (P08246 30-267): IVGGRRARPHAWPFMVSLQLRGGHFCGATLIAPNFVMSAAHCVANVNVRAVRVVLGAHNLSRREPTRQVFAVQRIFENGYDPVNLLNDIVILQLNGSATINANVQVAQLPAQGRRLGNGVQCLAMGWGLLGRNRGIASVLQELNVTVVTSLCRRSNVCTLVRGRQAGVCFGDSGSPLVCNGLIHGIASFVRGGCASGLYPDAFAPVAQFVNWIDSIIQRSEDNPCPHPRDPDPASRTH
# Experiment: Inhibition of human leukocyte elastase (HLE) on methoxy-succinyl-alanyl-alanyl-prolyl-valine-p-nitroanilide
# Type: biochemical
# Conditions: dissociation constant of the inhibitor-HLE complex
# Description: The potency of a Compound to act as an inhibitor of human leukocyte elastase (HLE) on the low molecular weight peptide substrate methoxy-succinyl-alanyl-alanyl-prolyl-valine-p-nitroanilide is determined as described in U.S. Pat. No. 4,910,190. The potency of an inhibitor is evaluated by obtaining a kinetic determination of the dissociation constant, Ki, of the complex formed from the interaction of the inhibitor with HLE. If a Compound is found to be a "slow-binding" inhibitor of HLE, special methods of analysis to accurately determine Ki values for the inhibition of HLE are carried out as described in U.S. Pat. 4,910,190.
smiles,measurement,value
"CC(C)C(NC(=O)Cn1c(-c2ccccc2)cc2c([nH]c3c(C=O)cccc32)c1=O)C(=O)C(F)(F)F (stereo not shown) [Example 2, 2-(8-Formyl-1-oxo-3-phenyl-1,2-dihydropyrido[3,4-b]indol2-yl)-N-(3,3,3-trifluoro-1-isopropyl-2-oxopropyl)acetamide]",Ki,27 nM
